Reference: patent US20240076667A1, “APPLICATION OF ANTISENSE OLIGONUCLEOTIDE TARGETING PBX1 PROMOTER REGION G-QUADRUPLEX IN PREPARATION OF MEDICINE FOR TREATING MELANOMA” (JILIN UNIVERSITY, priority 2022, published 2024)
Entries after “also recorded” stand apart in the source; their conditions may differ.

Assays:
A375 melanoma cells = experiment: In vivo tumor growth experiment, A375 xenograft in nude mice
Experimental: In vivo tumor growth experiment: to evaluate the effect of PBX1 on growth of in vivo tumors, before inoculation, male nude mice of 6 weeks (BALB/C background) are randomly divided into designated groups (5 per group). 1×10^6 A375 melanoma cells are injected subcutaneously into the upper flank of the back of each mouse. After injection, the mice are administered with PDS drug for treatment for 21 days (once every two days), and after the mice are sacrificed, the tumor weight is measured.
Bioluminescent tumor cell tracking: in vivo whole-animal imaging, anesthetized mice are injected intraperitoneally with 3 mg of d-luciferin (MCE, USA). Luminescence data is collected on an IVIS system (Perkin Elmer, USA). For live tissue imaging, tissues are perfused with PBS, harvested, and incubated in PBS with 1 μg/ml-1d-luciferin. Data analysis is performed using an IVIS Image software package.

PBX1 promoter region = experiment: BG4 chromatin immunoprecipitation (ChIP) followed by qRT-PCR in A375 cells; format: cell-based, human
Experimental: (§1) FIGS. 2A-2G are features formed by dG1 and rG1 in vitro and in cells. In (FIG. 2A), Left: CD spectra of WT and Mut dG1, and Right: CD spectra of WT and Mut rG1. CD is circular dichroism. In (FIG. 2B), Left: gel mobility assay of WT and Mut dG1, and Right: gel mobility assay of WT and Mut rG1. In (FIG. 2C), under specified conditions, fluorescence-on assay of NMM in absence of presence of dG1 or rG1, and their G/A mutant. In (FIG. 2D), the occupancy of BG4 in the PBX1 promoter region is measured in A375 cells by BG4 chromatin immunoprecipitation (ChIP), followed by qRT-PCR. In (FIG. 2E), RNA immunoprecipitation (RIP) detection is performed to show the association between BG4 and the PBX1 transcript in A375 cells, followed by qRT-PCR. In (FIG. 2F), the occupancy of BG4 in the PBX1 promoter region is measured, by the BG4 chip, in A375 cells treated with or without PDS and TMPyP4, followed by qRT-PCR. […] SEM represents the standard error of mean. *P< 0.05, **P< 0.01***P< 0.001.
In this embodiment, several methods are further employed to verify the formation of dG1 and rG1. First, circular dichroism (CD) is used to examine the molar ellipticity of dG1 and rG1 sequences (33 nt) and mutants thereof, and the mutants are designed to eliminate G4 formation. […] Both dG1 and rG1 are found to enhance the fluorescence of N N (FIG. 2C). […]

B16-F10 cells [1] = experiment: In vitro cell invasion experiment (Transwell), B16-F10; format: cell-based, mouse; details: Transwell with Matrigel, 24 hours
Experimental: (§2) In vitro cell invasion experiment: in the Transwell invasion experiment, Matrigel is used as an invasive supraluminal membrane barrier (Corning, USA). The lower transwell chamber is filled with 2.5% serum containing DMEM medium. The cells are suspended at an upper chamber. After incubation for 24 hours, the filter is removed, and cells on the membrane are fixed by using methanol. Cells stained with 0.5% crystal violet infiltrate the surrounding matrix. The dye is washed with water and the cells are examined under the microscope (Leica, Germany). Six micrographs are taken for each person.

A375 cells [2] = experiment: In vitro cell invasion experiment (Transwell), A375; format: cell-based, human; details: Transwell with Matrigel, 24 hours
Experimental: as §2

PBX1 = PBX1 mRNA and protein levels by qRT-PCR and western blot in B16-F10 cells; format: cell-based, mouse; details: for mRNA level of PBX1: qRT-PCR; for protein level of PBX1: western blot, normalized to GAPDH
Experimental: RNA extraction and quantitative RT-PCR detection: total RNA is extracted from cultured cells by using TRIzol (Invitrogen, USA), then is converted into cDNA by SuperScript III First-Strand Synthesis SuperMix (Invitrogen, USA). qRT-PCR detection is performed by using SYBR Green®Mix (Invitrogen, USA) in ABI 7500 (Invitrogen, USA). A relative expression quantity of RNA is calculated by using a comparative CT method.
Immunoblotting: for protein analysis of a whole-cell lysate, cells are lysed with RIPA (CWBIO, Beijing, China) buffer solution. For tumors, liquid nitrogen is first used to pulverize tissues. Then, the lysate is generated on ice with the RIPA (CWBIO, Beijing, China) buffer solution for 20 minutes, and then centrifuged at 4° C., 13000 rpm for 15 minutes. Protein-containing supernatant is transferred to the fresh microcentrifuge tube, and stored at −20° C. (short-term storage) for subsequent use. The protein is quantified by using the BIO-RAD DC protein assay. The total proteins are electrophoresed on SDS-polyacrylamide gels. Then, the proteins are transferred to polyvinylidene difluoride (PVDF) membrane. After incubation with the primary antibody overnight on the shaker at 4° C., the membrane is washed 6 times (5 minutes each time) with TBS-T (Invitrogen, USA). Then, blots are incubated with horseradish peroxidase (IRP)-conjugated secondary antibodies for 60 minutes at RT on the plate shaker. The membrane is cleaned by TBS-T (6×5 minutes). Detection on immunoreactive bands is performed by using SuperSignalmWest Pico chemiluminescence substrate kit (Thermo Fisher Scientific, USA) and Western blotting detection system (BioRad, USA). GAPDH is used as the loading control for western blotting. The intensity levels of the bands are normalized to GAPDH.

B16-F10 cells [3] = experiment: Colony forming assay, B16-F10; format: cell-based, mouse
Experimental: (§3) Colony forming assay: for the colony forming assay, A375 and B16-F10 cells are seeded on 6-well plates with the density of 500-1000 cells. After two weeks, staining is performed by using 1% crystal violet at room temperature, rinsing is performed with PBS and tap water, and the number of colonies is counted.

PBX1 transcript = experiment: BG4 RNA immunoprecipitation (RIP) followed by qRT-PCR in A375 cells; format: cell-based, human
Experimental: as §1
In this embodiment, several methods are further employed to verify the formation of dG1 and rG1. First, circular dichroism (CD) is used to examine the molar ellipticity of dG1 and rG1 sequences (33 nt) and mutants thereof, and the mutants are designed to eliminate G4 formation. […] N-methyl mesoporphyrin IX (NMN) is the well-known fluorescent G4-specific ligand that can be used for studies of G4 formation in vitro. Both dG1 and rG1 are found to enhance the fluorescence of N N (FIG. 2C). In addition, in this embodiment, chromatin immunoprecipitation (ChIP) and RNA immunoprecipitation (RIP) detection are performed in A375 cells using the well-known G4-specific antibody BG4. […] In summary, dG1 and rG1 can fold stable G4 structures in vitro and in cells. […] Therefore, the ability of these G4-specific ligands to interact with PBX1 G4s is investigated next.
Control:mG*mT*mC*mC*mA*mC*mA*mA*mA*mC*mA*mC*mA*mA*mC*mT*mC* mC*mT*mG*). […] This example also establishes short-term cultures of patient-derived melanoma xenograft (PDX)-derived tumor cells (PDCs) (FIG. 5D). […]

A375 cells [4] = experiment: Colony forming assay, A375; format: cell-based, human
Experimental: as §3

| Structure (SMILES) | growth of xenograft tumors (A375 melanoma cells; A375 subcutaneous, nude mice, treatment 21 days once every two days) | expression of PBX1 in xenograft tumors (A375 melanoma cells; qRT-PCR and IHC staining) | pull-down of the PBX1 promoter by BG4 (PBX1 promoter region) | invasion (B16-F10 cells [1]) | invasion (A375 cells [2]) | mRNA level of PBX1 (PBX1) | protein level of PBX1 (PBX1) | colony formation (B16-F10 cells [3]) | PBX1 transcript pulled down by BG4 (PBX1 transcript) | colony formation (A375 cells [4]) |
| --- | --- | --- | --- | --- | --- | --- | --- | --- | --- | --- |
| NCCOc1cc(C(=O)Nc2cc(OCCN)c3ccccc3n2)nc(C(=O)Nc2cc(OCCN)c3ccccc3n2)c1 [PDS, Pyridostatin] | remarkably inhibits | downregulating | enhance | inhibit | inhibit | inhibit; also recorded: remarkably reduces | inhibit; also recorded: remarkably reduces | inhibits | enhance | inhibits |
| C[n+]1ccc(-c2c3nc(c(-c4cc[n+](C)cc4)c4ccc([nH]4)c(-c4cc[n+](C)cc4)c4ccc([nH]4)c(-c4cc[n+](C)cc4)c4nc2C=C4)C=C3)cc1 [TMPyP4] |  |  | enhance | inhibit | inhibit | inhibit; also recorded: remarkably reduces | inhibit; also recorded: remarkably reduces | inhibits | enhance | inhibits |
